According to paper PMC9170845, “Development of a multi faceted platform containing a tetrazine, fluorophore and chelator: synthesis, characterization, radiolabeling, and immuno-SPECT imaging” (EJNMMI Radiopharmacy and Chemistry, 2022):

Legend:
[1] = Fluorescence characterization (excitation/emission spectra, absolute quantum yield); format: physicochemical; settings: in DMSO (stated for 13); for fluorescence quantum yield (Φfl): absolute PLQY, integrating sphere
Procedure: Following the synthesis of the final scaffold, the excitation and emission spectrum, and quantum yield were measured for the uncomplexed scaffold DO3A-BODIPY-Tz (13) in DMSO (Fig. 1), where an excitation λmax = 524 nm, emission λmax = 537 nm and a fluorescence quantum yield (Φfl) of 0.38 was observed. There are reports of tetrazine residues deactivating the fluorescence properties of fluorophores when they belong to the same molecular entity. However, once the tetrazine is conjugated, these properties are reinstated (Oliveira et al. [2017]; Wu and Devaraj [2018]). To ensure this, 13 was conjugated to TCO-NHS 16 in DMSO (Scheme 2). A distinct colour change from red to orange was observed which clearly indicated tetrazine consumption. The fluorescence properties of 17 (see Additional file1: Fig. S36) were then measured and compared to 13 and 4,4′-dicyano-BODIPY (7) (see Additional file1: Fig. S35; λmax excitation = 527 nm, λmax emission = 541 nm, Φfl = 0.87).
Luminescence experiments were conducted on an Edinburgh Instruments FS5 spectrometer using the SC-05 cassette. All spectra were corrected for instrument response. Excitation and emission monochromator bandwidths for 7 and 17 were set to 1 nm, and 1.5 nm for 13. The emission spectrum for 13 was collected with the aid of a Knight Optical 395 nm long-pass filter to reduce the effects of scattering. Solution-based absolute photoluminescent quantum yields (PLQY) were obtained for 7, 13, and 17 via the SC-30 Integrating Sphere cassette with excitation wavelengths of 380, 490, and 378 nm respectively.

[2] = Stability of cyano BODIPY core in acidic conditions (TFA in CDCl3, 1H NMR); format: physicochemical; settings: treated with TFA in CDCl3, monitored via 1H NMR, 11 days
Source text: Initially our scaffold design comprised of the conventional 4,4′-difluoro-BODIPY fluorophore (Additional file1: Scheme S1). Despite numerous attempts and alternative strategies for completing the synthesis of the platform using the F-BODIPY fluorophore, the route was unsuccessful resulting in either BF2 core removal or complete decomposition (see Additional File), despite there being reports in the literature of similar transformations being successful in the presence of F-BODIPY dyes (Alnajjar et al. [2018]; Tsuji et al. [2018]; Sui et al. [2016]; Compton et al. [2019]; Ieda et al. [2014]). […] The increased stability is believed to be a result of enhanced aromaticity, decreased charge density on the boron, and the formation of a stable 4,4′-dicyano-BODIPY-TFA complex. To the best of our knowledge there has only been one example of an investigation incorporating 4,4′-dicyano-BODIPYs into a chemical synthesis with protecting groups (Uriel et al. [2020]). To reassure the stability of the cyano BODIPY core in acidic conditions, 7 was treated with TFA in CDCl3 and monitored via ^1H NMR (see Additional file1: Fig. S11) (Wang et al. [2018]). […] An alternative route was initially investigated, where the Cbz on 9 underwent hydrogenolysis followed by insertion of the chelator, deprotection, then insertion of the tetrazine. […]

Row | SMILES | emission λmax [1] | excitation λmax [1] | fluorescence quantum yield (Φfl) [1] | Stability in acidic conditions [2]
1 | CCC1=C(C)C2=C(c3ccc(C(=O)NC(CCCCNC(=O)Cc4ccc(-c5nncnn5)cc4)C(=O)NC(CCCCNC(=O)CN4CCN(CC(=O)O)CCN(CC(=O)O)CCN(CC(=O)O)CC4)C(=O)O)cc3)c3c(C)c(CC)c(C)n3[B-](C#N)(C#N)[N+]2=C1C [compound 13, 2,2′,2″-(10-(2-(((S)-5-((S)-6-(2-(4-(1,2,4,5-tetrazin-3-yl)phenyl)acetamido)-2-(4-(4,4-dicyano-2,6-diethyl-1,3,5,7-tetramethyl-4-bora-3a,4a-diaza-s-indacen-8-yl)benzamido)hexanamido)-5-carboxypentyl)amino)-2-oxoethyl)-1,4,7,10-tetraazacyclododecane-1,4,7-triyl)triacetic acid] | 537 nm | 524 nm | 0.38 | 
2 | CCC1=C(C)C2=C(c3ccc(C(=O)NC(CCCCNC(=O)Cc4ccc(C5=NNC=C6CCC(OC(=O)ON7C(=O)CCC7=O)CCCC65)cc4)C(=O)NC(CCCCNC(=O)CN4CCN(CC(=O)O)CCN(CC(=O)O)CCN(CC(=O)O)CC4)C(=O)O)cc3)c3c(C)c(CC)c(C)n3[B-](C#N)(C#N)[N+]2=C1C (stereo not shown) [compound 17] | 537 nm | 525 nm | 0.79 | 
3 | CCC1=C(C)C2=C(c3ccc(C(=O)ON4C(=O)CCC4=O)cc3)c3c(C)c(CC)c(C)n3[B-](C#N)(C#N)[N+]2=C1C [compound 7, 4,4-dicyano-8-(4-(succinimidocarboxy)phenyl)-2,6-diethyl-1,3,5,7-tetramethyl-4-bora-3a,4a-diaza-s-indacene] | 541 nm | 527 nm | 0.87 | no indication of instability even after 11 days
